Results as given in doi:10.1101/2024.08.13.607785v1 (biorxiv, 2024).

Key:
Parameters in all cases: species or system mixed lysate of K562, MV4-11, THP-1, NCI-H1155
[1] = biological target: Activated CDC42 kinase 1 ; TNK2 ; Q07912 (Homo sapiens, UniProt Q07912); details: DDA-MS residual binding; binder
[2] = biological target: T1, Discoidin domain-containing receptor 2 ; DDR2 ; Q16832 (Homo sapiens, UniProt Q16832); details: binder
T1 sequence (Q16832 1-855): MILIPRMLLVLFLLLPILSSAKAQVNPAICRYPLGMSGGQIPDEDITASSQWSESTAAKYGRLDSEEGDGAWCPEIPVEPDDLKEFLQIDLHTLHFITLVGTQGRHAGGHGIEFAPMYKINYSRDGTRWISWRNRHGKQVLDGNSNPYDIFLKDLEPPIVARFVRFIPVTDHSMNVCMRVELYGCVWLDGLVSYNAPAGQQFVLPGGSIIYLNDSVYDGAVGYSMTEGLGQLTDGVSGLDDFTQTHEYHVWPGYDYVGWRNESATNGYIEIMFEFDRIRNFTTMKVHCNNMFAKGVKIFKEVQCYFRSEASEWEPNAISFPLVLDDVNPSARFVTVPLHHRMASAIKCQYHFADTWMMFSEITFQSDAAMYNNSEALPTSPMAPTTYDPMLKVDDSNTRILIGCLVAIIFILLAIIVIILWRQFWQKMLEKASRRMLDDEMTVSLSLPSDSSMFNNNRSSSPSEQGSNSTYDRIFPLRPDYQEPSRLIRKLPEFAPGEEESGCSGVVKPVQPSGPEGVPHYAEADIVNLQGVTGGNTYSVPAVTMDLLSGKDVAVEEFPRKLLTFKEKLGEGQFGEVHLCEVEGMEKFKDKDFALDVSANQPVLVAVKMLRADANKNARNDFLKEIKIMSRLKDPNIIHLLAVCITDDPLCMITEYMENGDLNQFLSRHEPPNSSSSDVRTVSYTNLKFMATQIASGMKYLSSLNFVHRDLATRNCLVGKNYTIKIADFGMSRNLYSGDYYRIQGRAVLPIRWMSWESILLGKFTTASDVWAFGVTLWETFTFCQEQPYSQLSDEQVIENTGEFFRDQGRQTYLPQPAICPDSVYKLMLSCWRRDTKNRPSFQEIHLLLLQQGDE

[3] = biological target: T2, Ephrin type-B receptor 2 ; EPHB2 ; P29323 (Homo sapiens, UniProt P29323); details: DDA-MS residual binding; binder
T2 sequence (P29323 1-1055): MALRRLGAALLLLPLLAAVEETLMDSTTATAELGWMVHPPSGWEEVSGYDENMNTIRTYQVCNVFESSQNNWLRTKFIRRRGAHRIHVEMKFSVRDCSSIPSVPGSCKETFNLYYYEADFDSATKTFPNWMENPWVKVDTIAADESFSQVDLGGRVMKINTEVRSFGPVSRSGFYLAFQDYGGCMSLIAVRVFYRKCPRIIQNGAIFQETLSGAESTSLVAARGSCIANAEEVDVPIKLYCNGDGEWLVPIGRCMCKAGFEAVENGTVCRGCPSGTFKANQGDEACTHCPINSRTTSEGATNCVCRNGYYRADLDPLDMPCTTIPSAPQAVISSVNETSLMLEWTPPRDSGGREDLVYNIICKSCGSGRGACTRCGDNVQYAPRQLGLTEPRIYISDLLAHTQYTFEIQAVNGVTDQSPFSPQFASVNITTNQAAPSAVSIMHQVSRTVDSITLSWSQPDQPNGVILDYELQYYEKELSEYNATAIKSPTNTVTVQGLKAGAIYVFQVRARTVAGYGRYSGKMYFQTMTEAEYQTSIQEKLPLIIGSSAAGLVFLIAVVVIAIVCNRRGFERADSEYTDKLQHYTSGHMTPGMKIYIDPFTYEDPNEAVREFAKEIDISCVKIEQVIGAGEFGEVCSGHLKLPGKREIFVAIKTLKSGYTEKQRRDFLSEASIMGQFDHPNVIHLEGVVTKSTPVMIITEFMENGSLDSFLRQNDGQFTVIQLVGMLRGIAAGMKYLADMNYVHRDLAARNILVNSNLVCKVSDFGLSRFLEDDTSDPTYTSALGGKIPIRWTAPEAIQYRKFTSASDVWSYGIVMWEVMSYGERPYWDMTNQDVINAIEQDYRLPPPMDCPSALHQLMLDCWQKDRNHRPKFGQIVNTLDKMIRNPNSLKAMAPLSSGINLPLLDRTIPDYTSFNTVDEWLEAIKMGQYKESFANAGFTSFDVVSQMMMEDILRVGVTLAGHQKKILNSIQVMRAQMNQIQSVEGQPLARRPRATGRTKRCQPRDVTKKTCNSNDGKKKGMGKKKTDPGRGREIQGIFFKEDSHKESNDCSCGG

[4] = biological target: Mitogen-activated protein kinase kinase kinase kinase 5 ; MAP4K5 ; Q9Y4K4 (Homo sapiens, UniProt Q9Y4K4); details: DDA-MS residual binding; binder
[5] = biological target: T3, Tyrosine-protein kinase Tec ; TEC ; P42680 (Homo sapiens, UniProt P42680); details: binder
T3 sequence (P42680 1-631): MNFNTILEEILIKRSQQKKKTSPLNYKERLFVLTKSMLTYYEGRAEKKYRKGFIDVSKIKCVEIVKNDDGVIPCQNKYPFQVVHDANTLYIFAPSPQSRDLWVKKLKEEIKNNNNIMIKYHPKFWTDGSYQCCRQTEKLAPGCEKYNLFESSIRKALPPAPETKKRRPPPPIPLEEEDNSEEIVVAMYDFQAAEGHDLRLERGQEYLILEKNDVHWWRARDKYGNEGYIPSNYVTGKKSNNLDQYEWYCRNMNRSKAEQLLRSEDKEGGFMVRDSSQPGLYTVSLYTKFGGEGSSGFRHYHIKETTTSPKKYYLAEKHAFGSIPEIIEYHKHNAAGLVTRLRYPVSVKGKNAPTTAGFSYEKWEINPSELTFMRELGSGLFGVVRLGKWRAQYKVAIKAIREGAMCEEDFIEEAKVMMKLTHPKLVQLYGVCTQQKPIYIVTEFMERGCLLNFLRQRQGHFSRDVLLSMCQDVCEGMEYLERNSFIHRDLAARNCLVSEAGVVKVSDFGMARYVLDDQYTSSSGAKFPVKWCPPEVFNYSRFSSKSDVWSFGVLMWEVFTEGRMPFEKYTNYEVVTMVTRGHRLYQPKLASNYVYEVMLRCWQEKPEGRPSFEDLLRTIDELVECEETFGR

Activated CDC42 kinase 1 ; TNK2 ; Q07912, sequence (Q07912 whole entry, the tested form may be a part): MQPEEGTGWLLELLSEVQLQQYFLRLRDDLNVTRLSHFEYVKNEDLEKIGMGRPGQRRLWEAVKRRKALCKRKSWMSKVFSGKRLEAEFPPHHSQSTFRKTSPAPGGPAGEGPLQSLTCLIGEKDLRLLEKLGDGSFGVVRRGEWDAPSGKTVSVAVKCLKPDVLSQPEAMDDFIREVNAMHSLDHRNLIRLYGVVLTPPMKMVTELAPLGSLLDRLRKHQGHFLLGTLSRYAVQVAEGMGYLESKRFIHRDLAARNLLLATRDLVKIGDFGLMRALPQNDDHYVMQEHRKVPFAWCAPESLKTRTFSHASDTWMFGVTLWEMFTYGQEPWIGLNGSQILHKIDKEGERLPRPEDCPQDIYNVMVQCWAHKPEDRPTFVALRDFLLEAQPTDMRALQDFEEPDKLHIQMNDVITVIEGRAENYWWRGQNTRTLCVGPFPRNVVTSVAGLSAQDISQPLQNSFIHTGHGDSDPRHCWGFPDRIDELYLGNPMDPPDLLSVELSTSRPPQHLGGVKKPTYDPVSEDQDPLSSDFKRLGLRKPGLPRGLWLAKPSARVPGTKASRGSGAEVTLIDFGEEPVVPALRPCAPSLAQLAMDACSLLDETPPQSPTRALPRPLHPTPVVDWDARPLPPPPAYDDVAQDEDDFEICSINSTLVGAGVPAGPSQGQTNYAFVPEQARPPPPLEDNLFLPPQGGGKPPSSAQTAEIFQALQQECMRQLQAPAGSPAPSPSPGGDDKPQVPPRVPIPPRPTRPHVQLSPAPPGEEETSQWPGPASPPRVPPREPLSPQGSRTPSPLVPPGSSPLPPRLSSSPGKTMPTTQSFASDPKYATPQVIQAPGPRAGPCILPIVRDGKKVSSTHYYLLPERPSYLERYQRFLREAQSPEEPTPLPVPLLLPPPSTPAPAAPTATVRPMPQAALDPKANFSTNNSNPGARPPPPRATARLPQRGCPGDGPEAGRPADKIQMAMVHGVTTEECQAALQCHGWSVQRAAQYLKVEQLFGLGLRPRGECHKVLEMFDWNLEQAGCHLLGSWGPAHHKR
Mitogen-activated protein kinase kinase kinase kinase 5 ; MAP4K5 ; Q9Y4K4, sequence (Q9Y4K4 whole entry): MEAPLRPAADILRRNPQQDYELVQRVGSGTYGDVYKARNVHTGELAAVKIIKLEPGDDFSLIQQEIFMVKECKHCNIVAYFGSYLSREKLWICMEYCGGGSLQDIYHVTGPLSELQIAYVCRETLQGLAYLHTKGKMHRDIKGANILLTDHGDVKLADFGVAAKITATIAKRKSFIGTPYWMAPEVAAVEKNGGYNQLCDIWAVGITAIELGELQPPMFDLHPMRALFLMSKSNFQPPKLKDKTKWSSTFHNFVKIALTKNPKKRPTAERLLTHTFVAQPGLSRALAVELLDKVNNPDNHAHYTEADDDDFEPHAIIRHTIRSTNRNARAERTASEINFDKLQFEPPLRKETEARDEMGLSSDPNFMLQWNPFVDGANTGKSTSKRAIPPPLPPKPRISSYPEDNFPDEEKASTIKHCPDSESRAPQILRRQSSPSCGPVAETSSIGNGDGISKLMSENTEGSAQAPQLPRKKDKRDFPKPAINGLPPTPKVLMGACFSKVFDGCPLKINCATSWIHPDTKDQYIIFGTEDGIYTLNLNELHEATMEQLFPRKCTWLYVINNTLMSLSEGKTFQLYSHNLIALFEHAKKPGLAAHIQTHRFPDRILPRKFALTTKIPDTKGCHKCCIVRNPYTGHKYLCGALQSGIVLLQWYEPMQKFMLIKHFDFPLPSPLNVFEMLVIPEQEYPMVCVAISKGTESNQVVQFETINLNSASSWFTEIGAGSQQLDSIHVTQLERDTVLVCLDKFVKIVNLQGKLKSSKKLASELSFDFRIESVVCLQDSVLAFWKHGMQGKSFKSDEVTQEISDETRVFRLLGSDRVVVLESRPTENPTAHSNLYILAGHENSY

## Cc1nc(Nc2ncc(C(=O)Nc3c(C)cccc3Cl)s2)cc(N2CCN(CCO)CC2)n1 [dasatinib]
[1]
  DDA-MS / % Intensity (30 µM/DMSO): 3.313%
[2]
  DDA-MS / % Intensity (30 µM/DMSO): 10.23%
[3]
  DDA-MS / % Intensity (30 µM/DMSO): 7.218%
[4]
  DDA-MS / % Intensity (30 µM/DMSO): 24.77%
[5]
  DDA-MS / % Intensity (30 µM/DMSO): 2.183%
